Assay results taken from US20240417410A1, “TRICYCLIC COMPOUNDS FOR THE TREATMENT OF CANCER” (Hoffmann-La Roche Inc., priority 2023, published 2024).

Columns and labels:
SW620 cells (KRAS G12V) = test: Cell viability assay (Cell Counting Kit-8, 3-day); assay type: cell-based, human; conditions: SW620, 72 hrs incubation
In short: (§1)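 Cells seeded at 5,000/well (NCI-H358) or 2,000/well (AGS, SW620), treated next day at 0.5% final DMSO for 72 h. Viability read by CCK-8 (OD450 minus OD650) after 2 h; IC50 from 4-parameter sigmoidal fit.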

[1] = test system: NCI-H358 cells (KRAS G12C); test: Cell viability assay (Cell Counting Kit-8, 3-day); assay type: cell-based, human; conditions: NCI-H358, 72 hrs incubation
In short: as §1

AGS cells (KRAS G12D) = test: Cell viability assay (Cell Counting Kit-8, 3-day); assay type: cell-based, human; conditions: 72 hrs incubation
In short: as §1

KRAS G12C-BRAF complex = KRAS G12C-BRAF complex (Homo sapiens (Human), UniProt P01116+P62937, G12C); test: KRAS-BRAF with CYPA (500 nM) interaction assay (TR-FRET, Example 136); assay type: biochemical; conditions: KRAS G12C-BRAF disruption
[2] = test system: phosphorylation of ERK, KRAS G12V in SW620; test: pERK inhibition assay; assay type: cell-based; conditions: SW620 cells
In short: (§2)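 Cells in RPMI-1640 with 10% FBS were plated overnight (30,000/well H358, 20,000 AGS, 30,000 SW620) and treated 4 h with compounds at 0.5% DMSO. After formaldehyde fixation and methanol permeabilization, pERK was detected by in-cell ELISA with HRP secondary and TMB (OD450); IC50 from 4-parameter fit.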

[3] = test system: phosphorylation of ERK, KRAS G12C in NCI-H358 cells; test: pERK inhibition assay; assay type: cell-based
In short: as §2

[4] = test system: phosphorylation of ERK, KRAS G12D in AGS cells; test: pERK inhibition assay; assay type: cell-based
In short: as §2

hERG potassium channel = hERG potassium channel (Homo sapiens (Human), UniProt Q12809); test: hERG potassium channel assay (manual patch clamp, CHO cells); assay type: cell-based; conditions: 34° C., manual patch, CHO cells
Procedure: The purpose of the test was to screen compounds for the activity on hERG channels as a non-clinical cardiac safety evaluation.
Advanced hERG experiments were performed at near-physiological temperature (34° C.) by HEKA EPC10 manual patch system (heka elektronik, EPC10 amplifier). The CHO cells (B′SYS GmbH) stably transfected hERG channel were initially held at −80 mV, depolarized to voltages between −40 mV (100 ms) to 20 mV (500 ms) to activate the hERG outward currents, and then repolarized to −40 mV (500 ms) to record the hERG tail currents, with an interpulse interval of 15s. The recording environment included: Extracellular solution (in mM): 150 NaCl, 4 KCl, 1.2 CaCl2), 1 MgCl2 and 10 HEPES; pH adjusted to 7.2-7.4 with 5 M NaOH; Intracellular solution (in mM): 125 KCl, 10 NaCl, 5 EGTA, 10 HEPES, 0.1 Na2GTP and 5 MgATP; pH adjusted to 7.2 with 1 M KOH. Current inhibitions in the presence of more than 4 concentrations in quadruplicate were used to fit hERG IC50 by Graphpad prism V8.0.

WT KRAS-BRAF complex = WT KRAS-BRAF complex (Homo sapiens (Human), UniProt P01116+P62937); test: WT KRAS-BRAF with CYPA interaction assay (TR-FRET); assay type: biochemical; conditions: WT KRAS
Procedure: (§3) In this example, TR-FRET was used to measure the compound or compound-CYPA dependent disruption of the KRAS G12V-BRAF complex to assess inhibition efficacy. The IC50 ratio between WT KRAS/HRAS/NRAS and KRAS G12V mutant was calculated as selective index, which indicated tolerability and safety profile. Disruption of WT KRAS/HRAS/NRAS-BRAF complex by compounds was detected respectively. In assay buffer containing 25 mM HEPES (PH-7.4,4-(2-hydroxyethyl)-1-piperazineethanesulfonic acid, Thermo, 15630080), 0.002% Tween20, 0.1% BSA, 100 mM NaCl, 5 mM MgCl2, 10 μM GMPPNP (Guanosine 5′-[β,γ-imido]triphosphate trisodium salt hydrate, Sigma, G0635), tagless CYPA and GMPPNP loaded 6His-RAS proteins, and GST-BRAF^RBD were mixed in a well of a 384-well assay plate at final concentrations of 50 nM, 6.25 nM and 1 nM, respectively. Compound was present in plate wells as a 16-point 3-fold dilution series starting at a final concentration of 10 μM and incubated for 3 hours. A mixture of MAb Anti-6His-XL665 (Cisbio, 61HISXLB) and Mab anti-GST-TB cryptate (Cisbio, 61GSTTLB) was then added at a final concentration of 6.67 nM and 0.21 nM, respectively, and the plate was incubated for an additional 1.5 hours. TR-FRET signal was read on a PHERstar FSX microplate reader (Ex320 nm, Em 665/615 nm). Compounds that facilitate disruption of the RAS-BRAF complex were identified as those eliciting a decrease in the TR-FRET ratio relative to DMSO control wells.

KRAS G12V-BRAF complex = KRAS G12V-BRAF complex (Homo sapiens (Human), UniProt P01116+P62937, G12V); test: KRAS G12V-BRAF with CYPA interaction assay (TR-FRET, selectivity test, Example 132); assay type: biochemical
Procedure: as §3

WT NRAS-BRAF complex = WT NRAS-BRAF complex (Homo sapiens (Human), UniProt P01111+P62937); test: WT NRAS-BRAF with CYPA interaction assay (TR-FRET); assay type: biochemical; conditions: WT NRAS
Procedure: as §3

[5] = Single dose pharmacokinetics (PK) study in female BALB/c mice; assay type: in vivo, mouse; conditions: female, BALB/c, mouse, plasma, female BALB/c mice
Procedure: The purpose of this study was to determine the pharmacokinetics of selected compounds following single intravenous bolus or oral gavage administration in female BALB/c mice. Briefly, two groups of female BALB/c mice (available from Shanghai Lingchang Biotechnology Co., Ltd) (N=3/group) were treated with a single dose of compound intravenously at 3 mg/kg (IV) or orally at 30 mg/kg (PO). Blood samples were collected at 5 min (only for IV), […], 30 min, 1 h, 2 h, 4 h, 7 h and 24 h post-dose. Blood samples were placed on ice until centrifugation to obtain plasma samples. The concentration of compound in plasma samples was determined using LC-MS/MS method. The pharmacokinetic parameters were calculated by non-compartmental analysis.

human hepatocytes = test: Human hepatocyte stability assay; assay type: in vitro ADME; conditions: 1 μM compound, human hepatocytes 1×10^6 cells/mL
Procedure: The hepatocyte stability assay measures the rate of disappearance of a compound from incubations with cryopreserved suspension hepatocytes from human. Positive controls, including Midazolam, Raloxifene and Dextromethorphan, are included in every experiment. Incubations consist of 1 μM tested compound and suspension of human hepatocytes (1×10^6 cells/mL) in supplemented Williams' E Medium with 10% FBS and 0.5% Penicillin-streptomycin. The hepatocyte suspension was incubated with intermittent shaking 900 rpm at 37° C., in a 5% CO2 incubator. The reaction was stopped by adding methanol containing internal standard (2 μM Tolbutamide) at 2, 10, 20, 40, 60 and 120 minutes after compound addition, depletion of the parent compound was monitored by LC-MS/MS analysis.

WT HRAS-BRAF complex = WT HRAS-BRAF complex (Homo sapiens (Human), UniProt P01112+P62937); test: WT HRAS-BRAF with CYPA interaction assay (TR-FRET); assay type: biochemical; conditions: WT HRAS
Procedure: as §3

KRAS G12C-BRAF complex, sequence (P01116-2 other isoform, or with tags, fused parts or gaps G12C): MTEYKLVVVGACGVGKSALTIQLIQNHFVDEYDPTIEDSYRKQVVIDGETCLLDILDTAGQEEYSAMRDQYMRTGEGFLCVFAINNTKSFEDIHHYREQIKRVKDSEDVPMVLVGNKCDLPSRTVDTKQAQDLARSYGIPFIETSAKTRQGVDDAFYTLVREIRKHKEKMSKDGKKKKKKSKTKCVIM
KRAS G12C-BRAF complex, sequence (P62937 whole entry): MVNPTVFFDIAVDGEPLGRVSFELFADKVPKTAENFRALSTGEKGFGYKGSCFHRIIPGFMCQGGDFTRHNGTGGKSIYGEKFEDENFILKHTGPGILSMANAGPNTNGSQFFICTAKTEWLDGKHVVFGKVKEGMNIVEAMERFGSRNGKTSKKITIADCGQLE
hERG potassium channel, sequence (Q12809 whole entry): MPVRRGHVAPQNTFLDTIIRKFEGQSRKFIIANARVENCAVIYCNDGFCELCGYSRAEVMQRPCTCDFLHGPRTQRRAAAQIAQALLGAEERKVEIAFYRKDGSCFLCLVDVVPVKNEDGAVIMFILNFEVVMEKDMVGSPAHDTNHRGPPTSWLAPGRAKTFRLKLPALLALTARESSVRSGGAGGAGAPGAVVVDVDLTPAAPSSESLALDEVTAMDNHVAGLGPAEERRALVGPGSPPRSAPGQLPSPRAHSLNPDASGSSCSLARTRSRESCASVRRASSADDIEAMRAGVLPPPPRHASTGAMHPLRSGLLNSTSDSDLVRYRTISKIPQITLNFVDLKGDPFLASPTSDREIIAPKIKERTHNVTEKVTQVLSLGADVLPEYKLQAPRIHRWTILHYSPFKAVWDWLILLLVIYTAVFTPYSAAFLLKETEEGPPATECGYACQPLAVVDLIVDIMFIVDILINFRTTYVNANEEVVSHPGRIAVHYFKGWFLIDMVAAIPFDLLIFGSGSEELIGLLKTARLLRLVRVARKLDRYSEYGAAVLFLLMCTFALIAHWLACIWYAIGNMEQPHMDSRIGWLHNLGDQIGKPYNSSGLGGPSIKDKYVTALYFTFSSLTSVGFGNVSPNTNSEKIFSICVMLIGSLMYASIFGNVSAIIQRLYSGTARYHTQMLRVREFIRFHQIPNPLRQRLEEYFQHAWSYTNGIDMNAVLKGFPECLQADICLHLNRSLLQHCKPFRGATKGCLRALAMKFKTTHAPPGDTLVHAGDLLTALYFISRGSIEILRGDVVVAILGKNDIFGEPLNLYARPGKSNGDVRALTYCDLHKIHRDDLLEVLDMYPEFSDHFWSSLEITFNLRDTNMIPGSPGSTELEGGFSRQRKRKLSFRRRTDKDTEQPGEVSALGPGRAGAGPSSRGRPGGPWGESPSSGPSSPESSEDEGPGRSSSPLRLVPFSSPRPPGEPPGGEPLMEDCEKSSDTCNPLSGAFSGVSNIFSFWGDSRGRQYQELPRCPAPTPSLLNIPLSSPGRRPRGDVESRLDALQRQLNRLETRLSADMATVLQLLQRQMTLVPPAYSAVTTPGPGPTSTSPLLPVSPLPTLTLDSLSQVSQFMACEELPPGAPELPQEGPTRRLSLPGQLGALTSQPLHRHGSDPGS
WT NRAS-BRAF complex, sequence (P01111 whole entry, looked up): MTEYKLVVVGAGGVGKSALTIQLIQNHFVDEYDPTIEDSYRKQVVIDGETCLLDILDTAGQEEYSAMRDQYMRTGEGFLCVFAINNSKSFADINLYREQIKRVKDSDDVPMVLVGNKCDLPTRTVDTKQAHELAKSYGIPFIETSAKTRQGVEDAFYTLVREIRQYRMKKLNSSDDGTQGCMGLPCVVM
WT NRAS-BRAF complex, sequence (P62937 whole entry, looked up): as the sequence (P62937 whole entry) above
WT KRAS-BRAF complex, sequence (P01116-2 whole entry, looked up): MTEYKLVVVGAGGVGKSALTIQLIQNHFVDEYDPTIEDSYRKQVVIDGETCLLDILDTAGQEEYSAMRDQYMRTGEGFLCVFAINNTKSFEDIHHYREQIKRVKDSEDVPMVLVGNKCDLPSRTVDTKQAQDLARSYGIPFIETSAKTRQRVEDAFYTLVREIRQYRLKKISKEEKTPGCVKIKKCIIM
WT KRAS-BRAF complex, sequence (P62937 whole entry, looked up): as the sequence (P62937 whole entry) above
WT HRAS-BRAF complex, sequence (P01112 whole entry, looked up): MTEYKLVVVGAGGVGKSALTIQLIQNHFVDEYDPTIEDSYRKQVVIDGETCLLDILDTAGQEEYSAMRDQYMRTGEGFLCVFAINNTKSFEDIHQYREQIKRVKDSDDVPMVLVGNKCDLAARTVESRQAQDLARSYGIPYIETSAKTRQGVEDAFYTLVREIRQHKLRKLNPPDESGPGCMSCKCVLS
WT HRAS-BRAF complex, sequence (P62937 whole entry, looked up): as the sequence (P62937 whole entry) above
KRAS G12V-BRAF complex, sequence (P01116-2 other isoform, or with tags, fused parts or gaps G12V): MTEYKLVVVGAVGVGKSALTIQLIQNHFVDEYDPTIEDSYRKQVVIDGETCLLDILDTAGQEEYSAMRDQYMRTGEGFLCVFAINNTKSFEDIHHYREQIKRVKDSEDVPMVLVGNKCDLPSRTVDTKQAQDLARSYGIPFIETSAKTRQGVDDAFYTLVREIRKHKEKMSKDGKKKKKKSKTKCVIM
KRAS G12V-BRAF complex, sequence (P62937 whole entry): as the sequence (P62937 whole entry) above

Row | Compound | IC50 (KRAS G12C-BRAF complex) [nM] | IC50 (SW620 cells (KRAS G12V); Homo sapiens, SW-620) [nM] | IC50 ([1]; Homo sapiens, NCI-H358, 72 h) [nM] | IC50 (AGS cells (KRAS G12D); Homo sapiens, 72 h) [nM] | IC50 ([2]; Homo sapiens, SW-620, 4 h) [nM] | IC50 ([3]; Homo sapiens, NCI-H358, 4 h) [nM] | IC50 ([4]; Homo sapiens, AGS, 4 h) [nM] | further results
1 | COC(C)c1ncc(N2CCN(C)CC2)cc1-c1c2c3cc(cc4c3n1CCO4)-c1csc(n1)CC(NC(=O)C1CC1C)C(=O)N1CCCC(N1)C(=O)OCC(C)(C)C2 [Example 17, (1S,2S)-N-[(7S,13S)-(20M)-20-[2-[(1S)-1-methoxyethyl]-5-(4-methylpiperazin-1-yl)-3-pyridyl]-17,17-dimethyl-8,14-dioxo-15,24-dioxa-4-thia-9,21,30,31-tetrazahexacyclo[23.3.1.1^2,5.1^9,13.0^19,27.0^21,26]hentriaconta-1 (28),2,5 (31),19,25 (29),26-hexaen-7-yl]-2-methyl-cyclopropanecarboxamide] | 25.4 | – | – | – | – | – | – | IC50 (SW620 cells (KRAS G12V)): 1.1 nM; IC50 [1]: 10.3 nM; IC50 (AGS cells (KRAS G12D)): 21.7 nM; IC50 ([2]; 4 hours): 1.8 nM; IC50 ([3]; 4 hours): 2.9 nM; IC50 ([4]; 4 hours): 2.7 nM
2 | CO[C@@H](C)c1ncc(N2CCN(C)CC2)cc1-c1c2c3cc(cc4c3n1CCO4)-c1csc(n1)C[C@H](NC(=O)C1(C)CC1(F)F)C(=O)N1CCC[C@H](N1)C(=O)OCC(C)(C)C2 (stereo partly drawn) [Example 54, 2,2-difluoro-N-[(7S,13S)-(20M)-20-[2-[(1S)-1-methoxyethyl]-5-(4-methylpiperazin-1-yl)-3-pyridyl]-17,17-dimethyl-8,14-dioxo-15,24-dioxa-4-thia-9,21,30,31-tetrazahexacyclo[23.3.1.1^2,5.1^9,13.0^19,27.0^21,26]hentriaconta-1 (29),2,5 (31), 19,25,27-hexaen-7-yl]-1-methyl-cyclopropanecarboxamide] | 23.3 | 3 | 12.1 | 36.8 | 1 | 1.3 | 8.8 | –
3 | CO[C@@H](C)c1ncc(N2CCN(C)CC2)cc1-c1c2c3cc(cc4c3n1CCO4)-c1csc(n1)C[C@H](NC(=O)C1(C)CC1C)C(=O)N1CCC[C@H](N1)C(=O)OCC(C)(C)C2 (stereo partly drawn) [Example 55, N-[(7S,13S)-(20M)-20-[2-[(1S)-1-methoxyethyl]-5-(4-methylpiperazin-1-yl)-3-pyridyl]-17,17-dimethyl-8,14-dioxo-15,24-dioxa-4-thia-9,21,30,31-tetrazahexacyclo[23.3.1.1^2,5.1^9,13.0^19,27.0^21,26]hentriaconta-1 (29),2,5 (31), 19,25,27-hexaen-7-yl]-1,2-dimethyl-cyclopropanecarboxamide] | 23.6 | 5.6 | 48.3 | 69.1 | 3.1 | 4.9 | 18.1 | –
4 | CO[C@@H](C)c1ncc(N2CCN(C)CC2)cc1-c1c2c3cc(cc4c3n1CCO4)-c1csc(n1)C[C@H](NC(=O)C1CC1c1ccc(F)cc1)C(=O)N1CCC[C@H](N1)C(=O)OCC(C)(C)C2 (stereo partly drawn) [Example 59, 2-(4-fluorophenyl)-N-[(7S,13S)-(20M)-20-[2-[(1S)-1-methoxyethyl]-5-(4-methylpiperazin-1-yl)-3-pyridyl]-17,17-dimethyl-8,14-dioxo-15,24-dioxa-4-thia-9,21,30,31-tetrazahexacyclo[23.3.1.1^2,5.1^9,13.0^19,27.0^21,26]hentriaconta-1 (29),2,5 (31),19,25,27-hexaen-7-yl]cyclopropanecarboxamide] | 16.7 | 7.4 | 33.7 | 87.2 | 3 | 8.8 | 21.3 | –
5 | CO[C@@H](C)c1ncc(N2CCN(CCOC3CCOC3)CC2)cc1-c1c2c3cc(cc4c3n1CCC4)-c1csc(n1)C[C@H](NC(=O)[C@H]1[C@H](C)[C@@H]1C)C(=O)N1CCC[C@H](N1)C(=O)OCC(C)(C)C2 (stereo partly drawn) [Example 122, (1r,2R,3S)-N-[(7S,13S)-(20M)-20-[2-[(1S)-1-methoxyethyl]-5-[4-(2-tetrahydrofuran-3-yloxyethyl)piperazin-1-yl]-3-pyridyl]-17,17-dimethyl-8,14-dioxo-15-oxa-4-thia-9,21,30,31-tetrazahexacyclo[23.3.1.1^2,5.1^9,13.0^19,27.0^21,26]hentriaconta-1 (28),2,5 (31), 19,25 (29),26-hexaen-7-yl]-2,3-dimethyl-cyclopropanecarboxamide] | 15.1 | 0.5 | 1.8 | 3.4 | 0.2 | 0.6 | 3.5 | –
6 | CCn1c(-c2cc(N3CCN(C)CC3)cnc2[C@H](C)OC)c2c3cc(ccc31)-c1csc(n1)C[C@H](NC(=O)[C@H]1[C@H](C)[C@@H]1C)C(=O)N1CCC[C@H](N1)C(=O)OCC(C)(C)C2 [Example A252, reference compound] | – | – | – | – | – | – | – | IC50 (hERG potassium channel): 11000 nM; IC20 (hERG potassium channel; human, CHO cells stably transfected with hERG channel): 3000 nM; IC50 (WT KRAS-BRAF complex): 18 nM; IC50 (KRAS G12V-BRAF complex): 9 nM; IC50 (WT NRAS-BRAF complex): 19 nM; clearance ([5]; iv, 3 mg/kg): 37.8 mL/min/kg; AUC(0-t) ([5]; po, 30 mg/kg): 14600 ng·h/mL; Cmax ([5]; po, 30 mg/kg, po, read-out: Cmax): 2440 ng/mL; Hepatic clearance (Human) (human hepatocytes): 9.2 mL/min/kg; IC50 (WT HRAS-BRAF complex): 23 nM
